In ChEMBL document CHEMBL1201862, “PubChem BioAssay data set” (2004):
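Grown in 96-well plates, cells were treated for 48 hours with each compound at five concentrations. Insufficient inhibition: endpoint recorded as highest concentration tested. GI50: concentration for 50% inhibition of growth.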 Calls of active or inactive are those of the source. Cut-off read from the data, not from the text of the source: active = GI50 up to about 1.1 µM and inactive = higher.

Key:
Assay in all cases: NCI anticancer screen, dose series, 48 h
HCT-116 = test system: HCT-116
OVCAR-8 = test system: OVCAR-8
SNB-19 = test system: SNB-19
SK-MEL-5 = test system: SK-MEL-5
NCI-H23 = test system: NCI-H23
HT-29 = test system: HT-29
MOLT-4 = test system: MOLT-4
KM12 = test system: KM12
ACHN = test system: ACHN
HCC 2998 = test system: HCC 2998
M14 = test system: M14
RPMI-8226 = test system: RPMI-8226
SF-295 = test system: SF-295
NCI-H522 = test system: NCI-H522
EKVX = test system: EKVX
UACC-257 = test system: UACC-257
SR = test system: SR
SW-620 = test system: SW-620
HOP-92 = test system: HOP-92
HL-60 = test system: HL-60

Row | Structure (SMILES) | GI50 (HCT-116) | GI50 (OVCAR-8) | GI50 (SNB-19) | GI50 (SK-MEL-5) | GI50 (NCI-H23) | GI50 (HT-29) | GI50 (MOLT-4) | GI50 (KM12) | GI50 (ACHN) | GI50 (HCC 2998) | GI50 (M14) | GI50 (RPMI-8226) | GI50 (SF-295) | GI50 (NCI-H522) | GI50 (EKVX) | GI50 (UACC-257) | GI50 (SR) | GI50 (SW-620) | GI50 (HOP-92) | GI50 (HL-60)
1 | CCOc1cc(NC(C)=O)ccc1C(=O)NN1C(=O)C(Cl)C1c1ccc(O)c(OC)c1 (stereo not given) | 18.2 µM (inactive) | 24.4 µM (inactive) | 15.8 µM (inactive) | 10.4 µM (inactive) | 11.7 µM (inactive) | 16.3 µM (inactive) | 5.3 µM (inactive) | 17.6 µM (inactive) | 16.6 µM (inactive) | 17.2 µM (inactive) | 11.8 µM (inactive) | 17.3 µM (inactive) | 21.3 µM (inactive) | 6.35 µM (inactive) | 16.1 µM (inactive) | 11.8 µM (inactive) | 4.52 µM (inactive) | 21.4 µM (inactive) | 16.4 µM (inactive) | 15.7 µM (inactive)
2 | Cn1nc(-c2ccccc2)nc1[N+](=O)[O-] | > 10 µM (inactive) | > 10 µM (inactive) | > 10 µM (inactive) | > 10 µM (inactive) | > 10 µM (inactive) | > 10 µM (inactive) | > 10 µM (inactive) | > 10 µM (inactive) | > 10 µM (inactive) | > 10 µM (inactive) | > 10 µM (inactive) | > 10 µM (inactive) | > 10 µM (inactive) | > 10 µM (inactive) | > 10 µM (inactive) | > 10 µM (inactive) | > 10 µM (inactive) | > 10 µM (inactive) | > 10 µM (inactive) | > 10 µM (inactive)
3 | O=c1cc(NCc2ccncc2)[nH]c(=O)[nH]1 | > 100 µM (inactive) | > 100 µM (inactive) | > 100 µM (inactive) | > 100 µM (inactive) | > 100 µM (inactive) | > 100 µM (inactive) | > 100 µM (inactive) | > 100 µM (inactive) | > 100 µM (inactive) | > 100 µM (inactive) | > 100 µM (inactive) | > 100 µM (inactive) | > 100 µM (inactive) | > 100 µM (inactive) | > 100 µM (inactive) | > 100 µM (inactive) | > 100 µM (inactive) | > 100 µM (inactive) | > 100 µM (inactive) | > 100 µM (inactive)
4 | C[C@]12CC[C@H](O)C[C@H]1CC[C@@H]1[C@@H]2CC[C@]2(C)[C@@H](C3=CC(=O)OC3)CC[C@]12O [DIGITOXIGENIN] | 0.0251 µM (active) | 0.147 µM (active) | 0.851 µM (active) | 0.0447 µM (active) | 0.0338 µM (active) | 0.209 µM (active) | < 0.01 µM (active) | 0.713 µM (active) | < 0.0125 µM (active) | 0.235 µM (active) | 0.226 µM (active) | 0.0757 µM (active) | 0.0473 µM (active) | < 0.01 µM (active) | 0.0873 µM (active) | 0.303 µM (active) | 0.0531 µM (active) | 0.118 µM (active) | 0.188 µM (active) | 0.0524 µM (active)
5 | COc1nc(N=P(c2ccccc2)(c2ccccc2)c2ccccc2)cc(=O)[nH]1 | > 100 µM (inactive) | > 100 µM (inactive) | > 100 µM (inactive) | > 100 µM (inactive) | > 100 µM (inactive) | > 100 µM (inactive) | > 100 µM (inactive) | > 100 µM (inactive) | > 100 µM (inactive) | > 100 µM (inactive) | > 100 µM (inactive) | > 100 µM (inactive) | > 100 µM (inactive) | > 100 µM (inactive) | > 100 µM (inactive) | > 100 µM (inactive) | > 100 µM (inactive) | > 100 µM (inactive) | > 100 µM (inactive) | > 100 µM (inactive)
